This is an account of results in ChEMBL document CHEMBL4261630.

The term pIC50 denotes −log10 of the IC50, conventionally taken in molar units. Read a low pIC50 as a large IC50. As usually defined, the inhibition is the drop in the measured response relative to a control, in per cent.

Assay [1] is described as follows: Inhibition of Pasteurella multocida sialyltransferase 1 using Neu5Acalpha2-3GalbetapNP as substrate after 30 mins by colorimetric assay.
The target in assay [2] is T1, Neuraminidase C (Streptococcus pneumoniae, UniProt A0A0B7LH44).
T1 sequence (A0A0B7LH44 whole entry): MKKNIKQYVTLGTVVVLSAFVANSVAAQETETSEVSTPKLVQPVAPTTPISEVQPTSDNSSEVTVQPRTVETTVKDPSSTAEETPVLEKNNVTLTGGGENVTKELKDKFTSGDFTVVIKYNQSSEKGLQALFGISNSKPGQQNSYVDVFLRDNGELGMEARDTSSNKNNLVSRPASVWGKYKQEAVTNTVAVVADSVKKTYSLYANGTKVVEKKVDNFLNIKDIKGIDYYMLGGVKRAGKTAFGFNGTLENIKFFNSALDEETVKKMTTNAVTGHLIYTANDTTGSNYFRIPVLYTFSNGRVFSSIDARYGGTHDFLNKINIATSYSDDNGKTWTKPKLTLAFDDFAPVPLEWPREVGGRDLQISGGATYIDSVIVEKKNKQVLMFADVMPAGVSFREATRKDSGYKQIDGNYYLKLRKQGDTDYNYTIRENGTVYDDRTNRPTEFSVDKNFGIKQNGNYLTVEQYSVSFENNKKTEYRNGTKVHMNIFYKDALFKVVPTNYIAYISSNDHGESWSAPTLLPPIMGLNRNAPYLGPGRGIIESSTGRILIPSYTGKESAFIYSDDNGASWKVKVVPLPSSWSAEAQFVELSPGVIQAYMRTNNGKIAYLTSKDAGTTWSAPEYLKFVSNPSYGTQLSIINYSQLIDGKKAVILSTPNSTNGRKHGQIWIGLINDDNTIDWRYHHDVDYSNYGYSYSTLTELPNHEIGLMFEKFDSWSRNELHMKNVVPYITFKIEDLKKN
Kind of assay: Inhibition of Streptococcus pneumoniae sialidase NanC using Neu5Acalpha2-3GalbetapNP as substrate after 30 mins by colorimetric assay.

The test system of assay [3] is Paenarthrobacter ureafaciens. To be noted: at 1 mM.
Assay [4] deals with T2, Sialidase (Clostridium perfringens) (UniProt P10481).
T2 sequence (whole entry): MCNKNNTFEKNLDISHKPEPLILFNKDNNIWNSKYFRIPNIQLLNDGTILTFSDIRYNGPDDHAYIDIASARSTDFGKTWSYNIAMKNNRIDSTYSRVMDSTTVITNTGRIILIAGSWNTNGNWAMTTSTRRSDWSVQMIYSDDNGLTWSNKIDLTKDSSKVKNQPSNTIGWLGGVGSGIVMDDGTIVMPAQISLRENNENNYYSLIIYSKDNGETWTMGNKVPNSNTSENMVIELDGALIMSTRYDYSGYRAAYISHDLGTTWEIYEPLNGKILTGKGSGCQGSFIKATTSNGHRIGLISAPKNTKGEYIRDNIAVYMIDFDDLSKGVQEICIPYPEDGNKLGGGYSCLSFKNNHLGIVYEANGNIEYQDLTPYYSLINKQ
To be noted: at 1 mM.

For assay [5], the target named is T3, Neuraminidase C (Streptococcus pneumoniae) (UniProt A0A0B7LH44).
T3 sequence (whole entry): T1 sequence (A0A0B7LH44 whole entry)
Conditions: at 1 mM.

The target in assay [6] is Sialidase A (Streptococcus pneumoniae) (UniProt P62575). To be noted: at 0.1 mM.
Chain of Sialidase A (Streptococcus pneumoniae) (P62575 whole entry): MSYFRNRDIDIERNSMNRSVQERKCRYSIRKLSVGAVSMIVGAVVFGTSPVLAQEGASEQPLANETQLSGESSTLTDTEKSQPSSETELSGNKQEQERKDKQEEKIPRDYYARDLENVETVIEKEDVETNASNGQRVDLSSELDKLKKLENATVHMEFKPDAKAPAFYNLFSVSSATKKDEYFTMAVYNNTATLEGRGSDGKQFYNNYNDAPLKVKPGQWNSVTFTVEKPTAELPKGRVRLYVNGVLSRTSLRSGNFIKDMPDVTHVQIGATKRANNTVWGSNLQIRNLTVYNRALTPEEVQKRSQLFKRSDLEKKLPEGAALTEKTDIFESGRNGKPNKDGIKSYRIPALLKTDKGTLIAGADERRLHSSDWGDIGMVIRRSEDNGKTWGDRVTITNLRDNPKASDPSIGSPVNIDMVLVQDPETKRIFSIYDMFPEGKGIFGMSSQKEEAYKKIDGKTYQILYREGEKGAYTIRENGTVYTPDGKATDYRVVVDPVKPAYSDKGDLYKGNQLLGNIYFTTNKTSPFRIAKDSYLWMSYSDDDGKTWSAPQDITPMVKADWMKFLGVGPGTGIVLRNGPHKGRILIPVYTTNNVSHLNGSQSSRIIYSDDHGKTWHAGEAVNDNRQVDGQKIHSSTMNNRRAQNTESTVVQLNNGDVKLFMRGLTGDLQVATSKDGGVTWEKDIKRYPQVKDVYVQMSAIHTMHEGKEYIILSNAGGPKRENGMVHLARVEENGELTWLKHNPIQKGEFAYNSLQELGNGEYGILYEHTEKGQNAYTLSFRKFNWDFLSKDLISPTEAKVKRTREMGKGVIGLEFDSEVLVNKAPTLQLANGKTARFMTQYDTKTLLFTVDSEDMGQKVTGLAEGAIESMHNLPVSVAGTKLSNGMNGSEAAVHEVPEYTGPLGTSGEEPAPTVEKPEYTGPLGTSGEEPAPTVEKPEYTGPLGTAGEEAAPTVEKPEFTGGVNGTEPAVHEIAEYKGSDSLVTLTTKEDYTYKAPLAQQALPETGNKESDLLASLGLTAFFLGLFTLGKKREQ
Assay [7] can be described thus: Inhibition of Arthrobacter ureafaciens sialidase using Neu5Acalpha2-3GalbetapNP as substrate after 30 mins by colorimetric assay. The arrangement: species or system Paenarthrobacter ureafaciens.
Assay [8] has as its target T3, Neuraminidase C (Streptococcus pneumoniae). To be noted: at 0.1 mM.
Assay [9] relates to Pasteurella multocida. To be noted: at 0.1 mM.
Assay [10] concerns the target T4, Sialidase B (Streptococcus pneumoniae serotype 4 (strain ATCC BAA-334 / TIGR4)) (UniProt Q54727).
T4 sequence (whole entry): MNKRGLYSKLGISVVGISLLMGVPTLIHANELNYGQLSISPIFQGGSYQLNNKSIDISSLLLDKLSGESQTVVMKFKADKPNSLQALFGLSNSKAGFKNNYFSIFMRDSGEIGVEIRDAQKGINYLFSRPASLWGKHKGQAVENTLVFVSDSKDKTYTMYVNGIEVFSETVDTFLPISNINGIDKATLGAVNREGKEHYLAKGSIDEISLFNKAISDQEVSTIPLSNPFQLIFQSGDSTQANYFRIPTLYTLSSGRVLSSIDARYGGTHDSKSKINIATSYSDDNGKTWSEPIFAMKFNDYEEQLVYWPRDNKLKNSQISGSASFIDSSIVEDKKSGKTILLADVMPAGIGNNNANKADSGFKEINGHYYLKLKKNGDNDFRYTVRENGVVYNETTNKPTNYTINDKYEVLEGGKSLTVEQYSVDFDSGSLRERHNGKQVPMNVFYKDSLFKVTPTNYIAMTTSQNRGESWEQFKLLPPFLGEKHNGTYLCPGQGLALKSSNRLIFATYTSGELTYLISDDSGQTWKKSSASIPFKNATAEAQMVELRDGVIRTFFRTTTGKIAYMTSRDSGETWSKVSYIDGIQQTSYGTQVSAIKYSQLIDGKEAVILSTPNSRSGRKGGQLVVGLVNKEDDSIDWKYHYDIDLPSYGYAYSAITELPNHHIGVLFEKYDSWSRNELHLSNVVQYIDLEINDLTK
Conditions: at 1 mM.

In assay [11] the target is T2, Sialidase (Clostridium perfringens). To be noted: at 0.1 mM.
For assay [12], the target named is Sialidase (Vibrio cholerae serotype O1 (strain ATCC 39315 / El Tor Inaba N16961)) (UniProt P0C6E9). To be noted: at 1 mM.
Chain of Sialidase (Vibrio cholerae serotype O1 (strain ATCC 39315 / El Tor Inaba N16961)) (P0C6E9 whole entry, one chain of several): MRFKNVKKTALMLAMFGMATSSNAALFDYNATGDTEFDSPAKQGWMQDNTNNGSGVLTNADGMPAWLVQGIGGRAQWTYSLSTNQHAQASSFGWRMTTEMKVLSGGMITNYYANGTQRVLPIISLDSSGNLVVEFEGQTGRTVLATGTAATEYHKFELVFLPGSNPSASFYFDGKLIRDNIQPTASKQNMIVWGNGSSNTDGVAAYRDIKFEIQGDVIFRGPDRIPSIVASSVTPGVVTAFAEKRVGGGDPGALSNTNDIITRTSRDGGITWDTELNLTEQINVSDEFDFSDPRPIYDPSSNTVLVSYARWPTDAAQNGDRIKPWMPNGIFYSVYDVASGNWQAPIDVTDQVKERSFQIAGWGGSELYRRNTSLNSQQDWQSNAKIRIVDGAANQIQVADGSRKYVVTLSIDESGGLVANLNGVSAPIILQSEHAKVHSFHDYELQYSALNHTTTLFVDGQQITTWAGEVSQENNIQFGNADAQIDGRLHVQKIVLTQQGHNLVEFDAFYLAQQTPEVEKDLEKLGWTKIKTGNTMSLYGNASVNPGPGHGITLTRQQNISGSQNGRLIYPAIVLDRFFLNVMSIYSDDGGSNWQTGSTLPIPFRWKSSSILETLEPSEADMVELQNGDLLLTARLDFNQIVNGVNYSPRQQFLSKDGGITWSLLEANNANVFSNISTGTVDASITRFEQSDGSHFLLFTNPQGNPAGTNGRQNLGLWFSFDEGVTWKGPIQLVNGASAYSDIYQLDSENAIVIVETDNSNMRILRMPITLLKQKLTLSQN
For assay [13], the target named is T4, Sialidase B (Streptococcus pneumoniae serotype 4 (strain ATCC BAA-334 / TIGR4)). To be noted: at 0.1 mM.
For assay [14], the target named is Sialidase (Vibrio cholerae serotype O1 (strain ATCC 39315 / El Tor Inaba N16961)) (UniProt P0C6E9). To be noted: at 0.1 mM.
Assay [15] has as its system Paenarthrobacter ureafaciens. Conditions: at 0.1 mM.
Assay [16] deals with Pasteurella multocida. Conditions: at 1 mM.
Assay [17] has as its target Sialidase A (Streptococcus pneumoniae) (UniProt P62575). To be noted: at 1 mM.
Assay [18] has as its target Sialidase (Vibrio cholerae serotype O1 (strain ATCC 39315 / El Tor Inaba N16961), UniProt P0C6E9). Nature of the assay: Inhibition of Vibrio cholerae sialidase using Neu5Acalpha2-3GalbetapNP as substrate after 30 mins by colorimetric assay.
The nature of assay [19]: Inhibition of Bifidobacterium longum subsp. infantis ATCC 15697 sialidase 2 (BiNanH2) using Neu5Acalpha2-3GalbetapNP as substrate after 30 mins by colorimetric assay.
Assay [20] deals with Sialidase A (Streptococcus pneumoniae, UniProt P62575). Kind of assay: Inhibition of Streptococcus pneumoniae NanA using Neu5Acalpha2-3GalbetapNP as substrate after 30 mins by colorimetric assay.
Chain of Sialidase A (P62575 whole entry): as the sequence (P62575 whole entry) above
For assay [21], the target named is T5, Sialidase B (Streptococcus pneumoniae serotype 4 (strain ATCC BAA-334 / TIGR4), UniProt Q54727).
T5 sequence (Q54727 whole entry): T4 sequence (whole entry)
Kind of assay: Inhibition of Streptococcus pneumoniae NanB using Neu5Acalpha2-3GalbetapNP as substrate after 30 mins by colorimetric assay.

In assay [22] the test system is Bifidobacterium longum subsp. infantis. To be noted: ATCC 15697, at 0.1 mM.
Assay [23] has the same test system. To be noted: ATCC 15697, at 1 mM.

pIC50: −log10 of the molar value.

Chain of Sialidase (P0C6E9 whole entry, one chain of several): as the sequence (P0C6E9 whole entry, one chain of several) above

Turning to `CC(=O)N[C@H]1[C@H]([C@H](O)[C@H](O)CO)OC(C(=O)O)=C[C@@H]1O` [NEU5AC2EN], the pIC50 in [1] was under 3.00; in [2] it was under 3.00; in assay [7], 5.09. In addition, the inhibition turned out to be 99% in assay [3]; 92.6% in assay [4]; 23.7% in assay [5]; 94.9% in assay [6]; 6.3% in assay [8]; 2.1% in [9]. Further, the inhibition in assay [10] came to 31.9%; in assay [11] it was 72.1%; in assay [12], 94.5%; in [13], 2.7%; in assay [14], 88.2%; in assay [15] it was 95.8%. For the same molecule, the inhibition in assay [16] came out at 9.3%; in [17], 99.9%.

For the molecule `CC(=O)N[C@H]1[C@H]([C@H](O)[C@H](O)CN=[N+]=[N-])OC(C(=O)O)=C[C@@H]1O`, the pIC50 is under 3.00 in assay [1]; under 3.00 in assay [2]; 4.70 in [18]; 6.14 in [7]; 3.00 to 4.00 in assay [19]; 4.35 in [20]. The pIC50 in [21] was under 3.00. Further, the inhibition stood at 99.5% in assay [3]; 89.3% in [4]; 39.2% in [5]; 78.6% in [6]; 13.4% in assay [8]; 1.7% in [9]. The inhibition came to 35.2% in assay [10]; 57.1% in assay [11]; 49.4% in [22]; 95.6% in assay [12]; 6.6% in assay [13]; 86% in assay [14]. The inhibition in [15] stood at 99.2%; in [16], 14.9%; in assay [17] it was 98.8%; in [23], 86.7%.

For the molecule `CC(=O)N[C@H]1[C@H]([C@H](O)[C@H](O)Cn2cc(C[C@H](N)C(=O)N[C@H](CCC(=O)O)C(N)=O)nn2)OC(C(=O)O)=C[C@@H]1O`, the pIC50 in assay [1] is under 3.00; in assay [2] it was under 3.00; in [18], 4.96; in assay [7] it was 5.73; in [20], 4.18; in [21], under 3.00. Besides, the inhibition in assay [3] turned out to be 96.2%; in assay [4] it was 84.6%; in assay [5], 29.7%; in assay [6], 61.9%; in assay [8] it was 13.5%; in assay [9] it was 0.1%. Also, the inhibition in assay [10] was 39%; in assay [11] it was 48.9%; in assay [22], 3.3%; in assay [12], 93.5%; in assay [13] it was 12.6%; in assay [14], 85.8%. The inhibition is 95.7% in assay [15], 6% in assay [16], 94.7% in assay [17] and 76.4% in assay [23].

Take `CC(=O)N[C@H]1[C@H]([C@H](O)[C@H](O)Cn2cc(C[C@H](NC(=O)[C@@H](N)CCC(=O)O)C(=O)N[C@@H](CCCCN)C(=O)N[C@@H](CCC(=O)O)C(N)=O)nn2)OC(C(=O)O)=C[C@@H]1O`: the pIC50 in assay [1], in assay [2] and in assay [19] was under 3.00 in each case. Moreover, the inhibition in assay [5] came to 9.8%.

For `CC(=O)N[C@H]1[C@H]([C@H](O)[C@H](O)Cn2cc(C[C@H](N)C(=O)O)nn2)OC(C(=O)O)=C[C@@H]1O`, the pIC50 in assay [1] was under 3.00; in assay [2], under 3.00; in [18], 4.87; in assay [19] it was under 3.00; in assay [20], 3.00 to 4.00; in [21], under 3.00. Besides, the inhibition turned out to be 85.6% in assay [3]; 69.7% in assay [4]; 47.8% in assay [5]; 42.9% in [6]; 15.3% in assay [8]; 2.8% in assay [9]. Besides, the inhibition was 35.5% in assay [10]; 17.6% in assay [11]; 0% in assay [22]; 93.2% in [12]; 8.8% in [13]; 82% in assay [14]. Further, the inhibition is 42.1% in assay [15], 9.1% in assay [16], 84.4% in assay [17] and 14.7% in [23].
